{"source": "paper PMC11187126", "about": "“Structure and dynamics of the pyroglutamylated RF-amide peptide QRFP receptor GPR103” (Nature Communications, 2024)", "target": "T1, GPR103 Q125^3.32A (Homo sapiens, UniProt Q96P65, Q125A)", "T1 construct": "we used human full-length QRFPR-encoding plasmids; expressed in transfected cells; host or cells: HEK293 cells, pCAGGS vector", "T1 sequence (Q96P65 1-431 Q125A)": "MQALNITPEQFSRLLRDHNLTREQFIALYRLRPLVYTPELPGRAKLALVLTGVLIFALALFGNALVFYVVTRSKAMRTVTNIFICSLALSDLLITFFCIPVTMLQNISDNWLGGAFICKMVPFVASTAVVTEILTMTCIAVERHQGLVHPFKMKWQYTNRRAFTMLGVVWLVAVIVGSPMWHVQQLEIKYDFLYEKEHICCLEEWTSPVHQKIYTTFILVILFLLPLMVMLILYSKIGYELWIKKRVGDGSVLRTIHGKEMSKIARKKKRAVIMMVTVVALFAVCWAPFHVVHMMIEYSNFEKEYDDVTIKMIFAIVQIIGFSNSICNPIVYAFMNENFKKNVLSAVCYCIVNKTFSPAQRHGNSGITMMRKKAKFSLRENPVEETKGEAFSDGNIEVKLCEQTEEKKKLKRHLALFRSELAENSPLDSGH", "assay": "TGFα shedding assay; Exp. level WT (1:50)", "assay_type": "cell-based", "note": "Where two headings read alike, the source gives them in different places. No end group written: not given here."}
{"substance": "TSGPLGNLAEELNGYSRKKGGFSFRF-NH2 [QRFP26]", "values": [{"measurement": "Emax", "setting": "Exp. #1", "value": 46.53, "unit": "% WT"}, {"measurement": "Emax", "setting": "Exp. #2", "value": 25.38, "unit": "% WT"}, {"measurement": "Emax", "setting": "Exp. #3", "value": 32.41, "unit": "% WT"}, {"measurement": "Emax", "setting": "mean, read-out: Emax", "value": 34.8, "unit": "%"}, {"measurement": "EC50", "setting": "n = 3", "value": 282, "unit": "nM"}, {"measurement": "Emax", "setting": "n = 3, read-out: Emax", "value": "35.7 ± 5.1", "unit": "%"}]}
